The text below walks through data of patent publication US20250026741A1, “INHIBITORS OF THE ONCOGENIC SHP2 PHOSPHATASE AND USES THEREOF” (Sanford Burnham Prebys Medical Discovery Institute, priority 2021, published 2025).

Structures are written as SMILES.

The test system of experiment [1] is MLL-AF10 leukemia cells expressing wild-type SHP2. Description: Cell viability assay, MLL-AF10 cells expressing wild-type SHP2. To be noted: Mus musculus. Type of experiment: cell-based, mouse. The protocol: (§1) Cell viability assays of SHP099, #01, and #02 against mouse MLL-AF10 leukemia cells were conducted. Two MLL-AF10 cell lines were employed, one expressing wild-type SHP2, and the other expressing E76K mutant SHP2.

For experiment [2], the system named is Kasumi-1 acute myeloid leukemia (AML) cells. Description: Cell viability assay (CellTiter-Glo), Kasumi-1. As to conditions: Kasumi-1 cells, various concentrations, 3 d. It is filed as cell-based. The source says: Inhibition of SHP2 has been reported to inhibit the growth of cancer cells including Kasumi-1 acute myeloid leukemia (AML) and KYSE-520 esophageal cancer cells. […] Cell viability is shown as a percentage of the vehicle (DMSO) control and represents the mean±SD. B) #02 dose-response curves in cell viability assays using Kasumi-1, KYSE-520, MOLM-13, and […] cells after 3 d in culture. The percentages compared to DMSO vehicle control were curve fitted using nonlinear regression (log[inhibitor] vs. normalized response, variable slope) and represent the mean±SD. C) Cell viability of […] and MDA-MB-468 triple-negative breast cancer (TNBC) cells in the presence of various concentrations of #02 or the SHP2 allosteric inhibitor SHP099 after 5 d in culture. Cell viability is shown as a percentage of DMSO vehicle control, representing mean±SD, and curve fitted as in B). D) Colony formation assay (11 d) of […] and MDA-MB-468 TNBC cells in the presence of various concentrations of #02 or the SHP2 allosteric inhibitor SHP099. E) Phospho-ERK1/2 (p-ERK1/2) immunoblot analysis from total cell lysates of MOLM-13 AML cells treated with #02 at the indicated concentrations, or with SHP2 allosteric inhibitor RMC-4550 (RMC, 1 μM) for 3 h or 24 h. The quantitation of p-ERK1/2 levels is shown as the percentage of the DMSO (vehicle) control and represents data from three independent experiments (mean±SD). F) Viability of AML patient-derived cells in the presence of 10 μM #02 or 10 μM SHP2 allosteric inhibitor RMC-4550 after 2 d, 4 d, or 6 d in culture. Cell viability is shown as a percentage of the DMSO vehicle control and represents the mean±SD (*p<0.05; **p<0.01; ****p<0.0001; unpaired test with Welch's correction) G) Viability of MOLM-13 cells and MOLM-13-Cas9-mCherry cells with SHP2 knockout (KO) in the presence of #01, #02, and allosteric inhibitor SHP099 at various concentrations (10-point dose-response). The percentages compared to the DMSO vehicle control were curve fitted using nonlinear regression (log[inhibitor] vs. normalized response, variable slope) and represent the mean±SD. SHP2 protein levels in regular MOLM-13 cells (WT), MOLM-13-Cas9-mCherry cells (Cas9), and MOLM-13-Cas9-mCherry cells with SHP2 KO (SHP2 KO) were evaluated by immunoblot analysis using SHP2 antibodies.
Viability of AML, esophageal carcinoma, and TF-1 cells was assessed using the ATP-depletion assay CellTiter-Glo® (Promega). Cells were harvested at 1×10^6/mL to 2×10^6 cells/mL with cell numbers determined by trypan blue using the Countess Cell counter (Thermo Scientific) and resuspended in culture media. […] Luminescence was read on a Tecan Spark® Multimode Microplate Reader and data analyzed using Graph Pad Prism software.

The target of the next experiment is SHP2cat (Homo sapiens (Human), UniProt Q06124). Description: OMFP fluorescence intensity inhibition assay, SHP2cat. It is filed as biochemical. As to conditions: OMFP at Km (50 μM); read-out: IC50 against SHP2cat with OMFP. The source says:
We confirmed specific and dose-dependent binding of inhibitors to SHP2 by protein thermal shift, which monitors the thermal stability of a target protein in vitro. […] In addition, we confirmed the inhibitory activity of several furanylbenzamide inhibitors, including the top two compounds #02 and #01, in SHP2cat inhibition assays using the alternative substrate 3-O-methylfluorescein phosphate (OMFP), which features a peak fluorescence emission that is red-shifted by […] compared to DiFMUP. The Km value of OMFP for SHP2cat was determined to be 50 μM. An OMFP fluorescence intensity-based assay was used to perform inhibitor dose-response experiments and determine IC50 values.
SHP2 inhibitors were tested at room temperature (RT) in a 384-well plate format standard phosphatase fluorescence intensity assay using DiFMUP (Invitrogen/Thermo Fisher Scientific, Carlsbad, CA) as a substrate and a total reaction volume of 25 μL. […] Fluorescence intensity was measured in kinetic mode (every minute for 7 or 10 min) using a Tecan Spark® Multimode Microplate Reader (Tecan, Groedig, Austria) with an excitation wavelength of 360 nm and an emission wavelength of 460 nm. The initial rates were determined from the linear progression curves of the PTP reaction. […] Initial rates were determined and IC50 vales calculated as described above.

The subject of experiment [3] is MLL-AF10 leukemia cells expressing E76K mutant SHP2. The experiment in a line: Cell viability assay, MLL-AF10 cells expressing E76K mutant SHP2. Type of experiment: cell-based, mouse. As to conditions: Mus musculus. The protocol:
as §1

SHP2cat, sequence (Q06124 248-527): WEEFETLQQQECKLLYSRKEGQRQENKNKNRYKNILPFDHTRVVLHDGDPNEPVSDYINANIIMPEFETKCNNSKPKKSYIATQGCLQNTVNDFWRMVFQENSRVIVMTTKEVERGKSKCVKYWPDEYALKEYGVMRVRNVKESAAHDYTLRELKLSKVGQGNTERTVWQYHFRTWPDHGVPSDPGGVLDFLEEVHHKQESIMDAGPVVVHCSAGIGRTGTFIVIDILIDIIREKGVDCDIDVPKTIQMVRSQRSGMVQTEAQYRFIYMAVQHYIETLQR

In general, IC50 refers to the concentration that gives 50% inhibition. `Nc1ccc(NC(=O)c2cc(-c3ccc(/C=C4\Sc5ccccc5C4=O)o3)ccc2O)cc1` [#01, (Z)—N-(4-Aminophenyl)-2-hydroxy-5-(5-((3-oxobenzo[b]thiophen-2(3H)-ylidene)methyl)furan-2-yl)benzamide]: the IC50 came to 916 nM in experiment [1], 1200 nM on SHP2cat and 2000 nM in experiment [3]. In experiment [2], the “effect on cancer cell growth” value was “dose-dependently inhibited cancer cell growth”.

On to `O=C(Nc1ccccc1)c1cc(-c2ccc(/C=C3\Sc4ccccc4C3=O)o2)ccc1O` [#02, (Z)-2-hydroxy-5-(5-((3-oxobenzo[b]thiophen-2(3H)-ylidene)methyl)furan-2-yl)-N-phenylbenzamide], for which the IC50 amounted to 2000 nM in experiment [1], 440 nM at SHP2cat and 3000 nM in experiment [3]. Also, the “effect on cancer cell growth” value in experiment [2] is on record as “dose-dependently inhibited cancer cell growth”.

`N#Cc1cc(-c2ccc(/C=C3\Sc4ccccc4C3=O)o2)ccc1O` [#05, (Z)-2-Hydroxy-5-(5-((3-oxobenzo[b]thiophen-2(3H)-ylidene)methyl)furan-2-yl)benzonitrile]: the “effect on cancer cell growth” value in experiment [2] is “dose-dependently inhibited cancer cell growth”.
